{
  "source": "patent US4737487A",
  "about": "“VIP type peptides” (Beecham Group p.l.c., priority 1984, dated 1988)",
  "key": {"[1]": {"tested_on": "proximal duodenum acid disposal capacity", "experiment": "Acid disposal capacity of the rat proximal duodenum (anti-ulcer activity)", "type": "in vivo", "settings": "significance P<0.05", "protocol": "Anti-ulcer activity may be related to the enhanced capacity to dispose of gastric acid. Acid disposal capacity may be enhanced by increased intestinal secretions and enhanced acid disposal capacity is believed to be useful in the treatment of peptic ulcer disease. Method for estimating the acid disposal capacity of the rat proximal duodenum Male Wistar rats, 180-250 g bodyweight, fasted overnight, are anaesthetized with urethane (150 mg/100 g bodyweight i.m.). The trachea is cannulated, and a gastric cannula, 0.5 cm i.d., 3 cm long, is inserted into the non-glandular forestomach via a mid-line abdominal incision. The intragastric cannula is exteriorized via a stab wound in the body wall. A triple lumen catheter, 0.3 cm o.d., is passed via the gastric cannula through the pylorus. The duodenum is ligated 1 cm below the pylorus, and the pylorus ligated around the cannula, thus creating a 1 cm proximal duodenal pouch excluding pancreatic and biliary secretions. The two ligatures enclosing the duodenal pouch are placed so as to avoid occluding the blood supply to the duodenal segment. Gastric secretions are allowed to drain freely from the gastric cannula. […] Outflow pH is recorded throughout the experiment. […] A group size of 6 animals or larger is used and the effect of compounds on the output pH compared to control data determined. […]"}, "[2]": {"tested_on": "spontaneous motility of proximal colon", "experiment": "Colonic motility in vivo: intraluminal pressure recording in anaesthetised rat", "settings": "urethane-anaesthetised male Wistar rats; intravenous administration; 3 μmol/kg", "protocol": "Male albino rats, Wistar strain (Charles River UK) 300-500 g were anaesthetised with urethane. A segment of proximal colon was prepared for intraluminal pressure recording after the method of Maggi and Meli (Maggi, C. A. and Meli, A. (1982), J. Pharmacol. Methods 8, 39-46). The activity of the compound (V) was assessed from its action on the spontaneous motility of the preparation after intravenous administration."}, "[3]": {"tested_on": "spontaneous contractile responses of circular muscle from the proximal colon", "experiment": "Colonic motility in vitro: isolated circular muscle of rat proximal colon", "type": "cell-based", "settings": "rat proximal colon circular muscle in Krebs solution, isolated tissue bath", "protocol": "Segments of circular muscle cut from the proximal colon of rats were mounted in Krebs solution in isolated tissue baths after the methods of Couture et al. (Couture R. et al. (1981), Can. J. Physiol. Pharmacol., 59, 957-964; and Couture R. et al., (1982), Pharmacol., 24, 230-242). The activity of the compound V was assessed from the effect on the spontaneous contractile responses generated by this tissue."}},
  "note": "Where a SMILES comes first, the peptide text is derived from it. [ ]: non-standard residue; d: D form. Nle = CCCC[C@H](N)C(=O)O",
  "data": [
    {"compound": "CCCC[C@H](NC(=O)[C@H](CCC(N)=O)NC(=O)[C@@H](N)CCCCN)C(=O)N[C@@H](C)C(=O)N[C@@H](CC(C)C)C(=O)N[C@@H](CCCCN)C(N)=O", "note": "[Example 4, H-Lys-Gln-Nle-Ala-Leu-Lys-NH2.Acetate] (H-KQ[Nle]ALK-NH2)", "values": [
      {"measurement": "acid disposal (output pH compared to control)", "setting": "[1]; 30 nmol/kg/h i.v. infusion, input pH 2.5 on first pass", "result": "significant increase"},
      {"measurement": "acid disposal (output pH compared to control)", "setting": "[1]; 150 nmol/kg/h i.v. infusion, input pH 3 and 2.5 on first pass and input pH 2.5 on second pass", "result": "significant increase"}
    ]},
    {"compound": "CCCC[C@H](NC(=O)[C@H](CCC(N)=O)NC(=O)[C@@H](N)CCCCN)C(=O)N[C@@H](C)C(=O)N[C@H](C(=O)N[C@@H](CCCCN)C(N)=O)C(C)C", "note": "[V, H-Lys-Gln-Nle-Ala-Val-Lys-NH2] (H-KQ[Nle]AVK-NH2)", "values": [
      {"measurement": "action on the spontaneous motility of the proximal colon preparation", "setting": "[2]", "result": "active"},
      {"measurement": "ED50, effect on spontaneous contractile responses", "setting": "[3]", "result": "10^-5 M"}
    ]}
  ]
}
